Molecular target: T1, Ode-UNC-29:Ode-UNC-63:Ode-UNC-38 (Oesophagostomum dentatum, UniProt E5KIX9+V5J2B2+V5J336)
T1 construct: co-injected with Haemonchus contortus ancillary factors Hco-ric-3, Hco-unc-50, Hco-unc-74; clones from earlier work of the authors
T1 sequence (V5J2B2 21-497): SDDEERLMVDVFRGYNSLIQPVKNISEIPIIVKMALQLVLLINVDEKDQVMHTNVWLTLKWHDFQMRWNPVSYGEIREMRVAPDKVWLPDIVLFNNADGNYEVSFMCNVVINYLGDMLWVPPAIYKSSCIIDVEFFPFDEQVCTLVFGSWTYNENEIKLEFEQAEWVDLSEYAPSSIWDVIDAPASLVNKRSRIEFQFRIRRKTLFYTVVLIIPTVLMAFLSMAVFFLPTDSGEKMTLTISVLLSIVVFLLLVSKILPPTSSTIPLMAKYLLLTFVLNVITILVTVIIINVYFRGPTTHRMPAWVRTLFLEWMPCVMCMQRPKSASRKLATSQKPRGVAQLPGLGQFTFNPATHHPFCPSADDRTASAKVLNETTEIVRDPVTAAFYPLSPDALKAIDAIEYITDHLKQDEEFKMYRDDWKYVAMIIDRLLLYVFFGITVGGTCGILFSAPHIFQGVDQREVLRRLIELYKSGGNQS
T1 sequence (E5KIX9 22-507): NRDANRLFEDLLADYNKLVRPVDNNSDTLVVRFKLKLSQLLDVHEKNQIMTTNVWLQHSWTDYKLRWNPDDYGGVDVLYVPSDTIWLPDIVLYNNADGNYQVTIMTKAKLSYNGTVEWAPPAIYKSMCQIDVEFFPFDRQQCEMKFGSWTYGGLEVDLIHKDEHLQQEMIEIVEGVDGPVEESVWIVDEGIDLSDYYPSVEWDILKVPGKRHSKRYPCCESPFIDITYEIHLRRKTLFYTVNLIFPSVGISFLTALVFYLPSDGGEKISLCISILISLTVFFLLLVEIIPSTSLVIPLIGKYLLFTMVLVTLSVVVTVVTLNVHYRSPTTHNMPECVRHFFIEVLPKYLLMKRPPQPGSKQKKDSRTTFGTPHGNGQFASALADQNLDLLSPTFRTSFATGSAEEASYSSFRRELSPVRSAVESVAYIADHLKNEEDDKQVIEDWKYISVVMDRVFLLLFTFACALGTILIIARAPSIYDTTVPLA
T1 sequence (V5J336 21-507): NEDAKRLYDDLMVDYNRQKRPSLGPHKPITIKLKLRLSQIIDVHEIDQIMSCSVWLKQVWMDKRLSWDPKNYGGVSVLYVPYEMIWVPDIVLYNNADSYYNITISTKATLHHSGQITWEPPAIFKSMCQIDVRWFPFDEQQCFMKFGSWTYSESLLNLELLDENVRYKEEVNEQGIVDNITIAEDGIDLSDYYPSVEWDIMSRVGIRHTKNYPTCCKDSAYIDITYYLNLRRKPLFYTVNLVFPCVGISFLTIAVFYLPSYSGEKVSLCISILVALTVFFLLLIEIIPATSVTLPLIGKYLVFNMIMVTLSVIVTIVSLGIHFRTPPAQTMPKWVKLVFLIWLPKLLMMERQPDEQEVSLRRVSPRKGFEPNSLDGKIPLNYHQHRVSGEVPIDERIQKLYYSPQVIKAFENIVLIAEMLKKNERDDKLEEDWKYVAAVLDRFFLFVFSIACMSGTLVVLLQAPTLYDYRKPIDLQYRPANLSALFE
Assay: two-electrode voltage clamp, Xenopus oocytes, agonist concentration-response, Hill fit
Format: cell-based

## CN1CCCN=C1/C=C/c1cccs1 [pyrantel]
  EC50: 0.4 µM

## CC(=O)OCC[N+](C)(C)C [acetylcholine]
  EC50: 13 ± 1.6 µM

Source: article PMC4709073, “Curiouser and Curiouser: The Macrocyclic Lactone, Abamectin, Is also a Potent Inhibitor of Pyrantel/Tribendimidine Nicotinic Acetylcholine Receptors of Gastro-Intestinal Worms” (PLoS ONE, 2016)
